pIC50: −log10 of the molar value.
Molecular target: T1, GCS (Canis lupus familiaris, UniProt A0A8I3MXG6)
T1 construct: endogenous in cells; host or cells: MDCK (Madin-Darby canine kidney) cells, whole-cell lysate
T1 sequence (A0A8I3MXG6 1-394): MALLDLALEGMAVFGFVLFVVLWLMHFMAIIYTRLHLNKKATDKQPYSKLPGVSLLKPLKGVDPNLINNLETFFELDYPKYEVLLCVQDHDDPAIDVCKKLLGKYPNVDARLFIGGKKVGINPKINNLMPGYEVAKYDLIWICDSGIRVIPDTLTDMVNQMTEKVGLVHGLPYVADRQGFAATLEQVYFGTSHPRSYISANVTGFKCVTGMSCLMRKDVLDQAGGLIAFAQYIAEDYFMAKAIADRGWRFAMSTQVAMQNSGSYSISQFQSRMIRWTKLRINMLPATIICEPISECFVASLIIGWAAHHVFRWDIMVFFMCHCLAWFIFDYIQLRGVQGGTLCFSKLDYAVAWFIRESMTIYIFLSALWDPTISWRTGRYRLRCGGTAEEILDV
Test: GCS enzymatic assay (MDCK cell lysate, NBD-ceramide to glucosylceramide, LC/MS)
Type: biochemical, canine
Details: Table 2, the table does not say which of the assays; for Data Range (% inhibition): class symbols D, E, F, NA (not active); for pIC50: class symbols A, B, C, read-out: Data Range (IC50 values)
Protocol: This assay was modified based on the study by Larsen et al. (J. Lipid Res. 2011, 53, 282). Madin-Darby canine kidney (MDCK) cell lysate was prepared using M-PER Mammalian Protein Extraction Reagent (Thermal Scientific) in the presence of a protease inhibitor cocktail (Roche). Protein concentration was determined using BCA assay kit (Pierce). […] 0.1% DMSO was used as mock treatment or control. The reaction was terminated by adding 100 μL acetonitrile solution and subjected to LC/MS analysis.
The quantitative analysis of NBD-Ceramide and glucosylceramide was performed on a Shimadzu ultra-fast liquid chromatography (Shimadzu, Japan) coupled with API 4000 triple quadrupole mass spectrometer (Applied Biosystems, Concord, Ontario, Canada). Sample separation was conducted on a Waters Xbridge™ BEH130 C18, 100 mm×4.6 mm i.d, 3.5 μm (Milford, Mass., USA). The mobile phase consisted of water and acetonitrile supplemented with 0.1% formic acid (v/v). The flow rate was 1.0 mL/min. The initial mobile phase was 20% acetonitrile and was ramped in a linear fashion to 50% acetonitrile in 0.4 min. From 0.4 to 1.5 min, the gradient was ramped to 98% acetonitrile, and then was held at […] until 8.0 min. Acetonitrile was reset to 20% in 1.5 min, and maintained until 10.0 min. The total run time was 10.0 min. The MS/MS detection was performed in ESI positive mode. The mass transition of NBD-Ceramide was m/z 576.36→558.40 under the collision energy of 15 V, and the mass transition of glucosylceramide was m/z 738.35→558.40 under 21V collision energy. The cell lysate was diluted with equal volume of acetonitrile. Aliquots of 50 μL diluted samples were added to 1.5 mL tubes, and 100 μL of acetonitrile containing internal standard (100 ng/mL tolbutamide) were added for protein precipitation. The mixture were vortexed and then centrifuged at 13000 rpm for 10 min. 70 μL of supernatant were mixed with 140 μL of H2O and the final solution were injected for LC/MS/MS analysis and IC50's and/or percent inhibitions calculated.

Row | SMILES | Data Range (% inhibition) | pIC50
1 | O=C(N[C@H](CN1CCCC1)[C@H](O)c1ccc2c(c1)OCCO2)[C@@H]1CCN(CCc2ccc(Cl)cc2)C1 [Compound 21, (R)-1-(4-chlorophenethyl)-N-((1R,2R)-1-(2,3-dihydrobenzo[b][1,4]dioxin-6-yl)-1-hydroxy-3-(pyrrolidin-1-yl)propan-2-yl)pyrrolidine-3-carboxamide] | F (1-49% (or less than 50%)) | 
2 | O=C(N[C@H](CN1CCCC1)[C@H](O)c1ccc2c(c1)OCCO2)C1CCN(CCc2ccc(Cl)cc2)C1 (stereo partly drawn) [Compound 21E, 1-(4-chlorophenethyl)-N-((1R,2R)-1-(2,3-dihydrobenzo[b][1,4]dioxin-6-yl)-1-hydroxy-3-(pyrrolidin-1-yl)propan-2-yl)pyrrolidine-3-carboxamide] | F (1-49% (or less than 50%)) | 
3 | O=C(N[C@H](CN1CCCC1)[C@H](O)c1ccc2c(c1)OCCO2)[C@H]1CCN(CCc2ccc(Cl)cc2)C1 [Compound 21F, (S)-1-(4-chlorophenethyl)-N-((1R,2R)-1-(2,3-dihydrobenzo[b][1,4]dioxin-6-yl)-1-hydroxy-3-(pyrrolidin-1-yl)propan-2-yl)pyrrolidine-3-carboxamide] | F (1-49% (or less than 50%)) | 
4 | O=C(N[C@H](CN1CCCC1)[C@H](O)c1ccc2c(c1)OCCO2)[C@@H]1CCN(c2ccccn2)C1 [Compound 22, (R)-N-((1R,2R)-1-(2,3-dihydrobenzo[b][1,4]dioxin-6-yl)-1-hydroxy-3-(pyrrolidin-1-yl)propan-2-yl)-1-(pyridin-2-yl)pyrrolidine-3-carboxamide] | E (50-74% (or less than 75%)) | 
5 | O=C(N[C@H](CN1CCCC1)[C@H](O)c1ccc2c(c1)OCCO2)C1CCN(c2ccccn2)C1 (stereo partly drawn) [Compound 22C, N-((1R,2R)-1-(2,3-dihydrobenzo[b][1,4]dioxin-6-yl)-1-hydroxy-3-(pyrrolidin-1-yl)propan-2-yl)-1-(pyridin-2-yl)pyrrolidine-3-carboxamide] | F (1-49% (or less than 50%)) | 
6 | O=C(N[C@H](CN1CCCC1)[C@H](O)c1ccc2c(c1)OCCO2)[C@H]1CCN(c2ccccn2)C1 [Compound 22D, (S)-N-((1R,2R)-1-(2,3-dihydrobenzo[b][1,4]dioxin-6-yl)-1-hydroxy-3-(pyrrolidin-l-yl)propan-2-yl)-1-(pyridin-2-yl)pyrrolidine-3-carboxamide] | F (1-49% (or less than 50%)) | 
7 | CC(C)Oc1ccc([C@@H](O)[C@@H](CN2CCCC2)NC(=O)[C@@H]2CCN(c3ccc(Cl)cc3)C2)cc1Cl [Compound 23, (R)-N-((1R,2R)-1-(3-chloro-4-isopropoxyphenyl)-1-hydroxy-3-(pyrrolidin-1-yl)propan-2-yl)-1-(4-chlorophenyl)pyrrolidine-3-carboxamide] |  | 7.52 to 9.00
8 | CC(C)Oc1ccc([C@@H](O)[C@@H](CN2CCCC2)NC(=O)[C@H]2CCN(c3ccc(Cl)cc3)C2)cc1Cl [Compound 23B, (S)-N-((1R,2R)-1-(3-chloro-4-isopropoxyphenyl)-1-hydroxy-3-(pyrrolidin-1-yl)propan-2-yl)-1-(4-chlorophenyl)pyrrolidine-3-carboxamide] | F (1-49% (or less than 50%)) | 
9 | O=C(N[C@H](CN1CCCC1)[C@H](O)c1ccc2c(c1)OCCO2)[C@@H]1CCN(c2ccc(F)cc2)C1 [Compound 24, (R)-N-((1R,2R)-1-(2,3-dihydrobenzo[b][1,4]dioxin-6-yl)-1-hydroxy-3-(pyrrolidin-1-yl)propan-2-yl)-1-(4-fluorophenyl)pyrrolidine-3-carboxamide] |  | 7.52 to 9.00
10 | O=C(N[C@H](CN1CCCC1)[C@H](O)c1ccc2c(c1)OCCO2)C1CCN(c2ccc(F)cc2)C1 (stereo partly drawn) [Compound 24B, N-((1R,2R)-1-(2,3-dihydrobenzo[b][1,4]dioxin-6-yl)-1-hydroxy-3-(pyrrolidin-1-yl)propan-2-yl)-1-(4-fluorophenyl)pyrrolidine-3-carboxamide] |  | 7.52 to 9.00
11 | O=C(N[C@H](CN1CCCC1)[C@H](O)c1ccc2c(c1)OCCO2)[C@H]1CCN(c2ccc(F)cc2)C1 [Compound 24C, (S)-N-((1R,2R)-1-(2,3-dihydrobenzo[b][1,4]dioxin-6-yl)-1-hydroxy-3-(pyrrolidin-1-yl)propan-2-yl)-1-(4-fluorophenyl)pyrrolidine-3-carboxamide] | NA (not active—a negative value was generated for % inhibition) | 
12 | O=C(N[C@H](CN1CCC1)[C@H](O)c1cc(F)c2c(c1)OCCO2)[C@@H]1CCN(c2ccc(Cl)cc2)C1 [Compound 25, (R)-N-((1R,2R)-3-(azetidin-1-yl)-1-(8-fluoro-2,3-dihydrobenzo[b][1,4]dioxin-6-yl)-1-hydroxypropan-2-yl)-1-(4-chlorophenyl)pyrrolidine-3-carboxamide] |  | 7.52 to 9.00
13 | O=C(N[C@H](CN1CCC1)[C@H](O)c1cc(F)c2c(c1)OCCO2)[C@H]1CCN(c2ccc(Cl)cc2)C1 [Compound 25B, (S)-N-((1R,2R)-3-(azetidin-1-yl)-1-(8-fluoro-2,3-dihydrobenzo[b][1,4]dioxin-6-yl)-1-hydroxypropan-2-yl)-1-(4-chlorophenyl)pyrrolidine-3-carboxamide] | F (1-49% (or less than 50%)) | 
14 | O=C(N[C@H](CN1CCCC1)[C@H](O)c1ccc2c(c1)OCCO2)C1CCN(C2CCCCC2)C1 (stereo partly drawn) [Compound 26, 1-cyclohexyl-N-((1R,2R)-1-(2,3-dihydrobenzo[b][1,4]dioxin-6-yl)-1-hydroxy-3-(pyrrolidin-1-yl)propan-2-yl)pyrrolidine-3-carboxamide] | NA (not active—a negative value was generated for % inhibition) | 
15 | O=C(N[C@H](CN1CCCC1)[C@H](O)c1ccc(OC2CC2)nc1)[C@@H]1CCN(c2ccc(F)cc2)C1 [Compound 27, (R)-N-((1R,2R)-1-(6-cyclopropoxypyridin-3-yl)-1-hydroxy-3-(pyrrolidin-1-yl)propan-2-yl)-1-(4-fluorophenyl)pyrrolidine-3-carboxamide] | E (50-74% (or less than 75%)) | 
16 | O=C(N[C@H](CN1CCCC1)[C@H](O)c1ccc(OC2CC2)nc1)[C@H]1CCN(c2ccc(F)cc2)C1 [Compound 27C, (S)-N-((1R,2R)-1-(6-cyclopropoxypyridin-3-yl)-1-hydroxy-3-(pyrrolidin-1-yl)propan-2-yl)-1-(4-fluorophenyl)pyrrolidine-3-carboxamide] | F (1-49% (or less than 50%)) | 
17 | O=C(N[C@H](CN1CCCC1)[C@H](O)c1ccc2c(c1)OCCO2)[C@@H]1CCN(c2ccc(Cl)cn2)C1 [Compound 28, (R)-1-(5-chloropyridin-2-yl)-N((1R,2R)-1-(2,3-dihydrobenzo[b][1,4]dioxin-6-yl)-1-hydroxy-3-(pyrrolidin-1-yl)propan-2-yl)pyrrolidine-3-carboxamide] | E (50-74% (or less than 75%)) | 
18 | O=C(N[C@H](CN1CCCC1)[C@H](O)c1ccc2c(c1)OCCO2)C1CCN(c2ccc(Cl)cn2)C1 (stereo partly drawn) [Compound 28C, 1-(5-chloropyridin-2-yl)-N-((1R,2R)-1-(2,3-dihydrobenzo[b][1,4]dioxin-6-yl)-1-hydroxy-3-(pyrrolidin-1-yl)propan-2-yl)pyrrolidine-3-carboxamide] | F (1-49% (or less than 50%)) | 
19 | O=C(N[C@H](CN1CCCC1)[C@H](O)c1ccc2c(c1)OCCO2)[C@H]1CCN(c2ccc(Cl)cn2)C1 [Compound 28D, (S)-1-(5-chloropyridin-2-yl)-N-((1R,2R)-1-(2,3-dihydrobenzo[b][1,4]dioxin-6-yl)-1-hydroxy-3-(pyrrolidin-1-yl)propan-2-yl)pyrrolidine-3-carboxamide] | NA (not active—a negative value was generated for % inhibition) | 
20 | CC(C)Oc1ccc([C@@H](O)[C@@H](CN2CCCC2)NC(=O)[C@@H]2CCN(c3ccc(Cl)cc3)C2)cn1 [Compound 29, (R)-1-(4-chlorophenyl)-N-((1R,2R)-1-hydroxy-1-(6-isopropoxypyridin-3-yl)-3-(pyrrolidin-1-yl)propan-2-yl)pyrrolidine-3-carboxamide] | F (1-49% (or less than 50%)) | 

— patent US10239832B2, “N-(1-hydroxy-3-(pyrrolidinyl)propan-2-yl)pyrrolidine-3-carboxamide derivatives as glucosylceramide synthase inhibitors” (BIOMARIN PHARMACEUTICAL INC., priority 2013, dated 2019)
